For this experiment, the target named is T1, TNIK (Homo sapiens, UniProt Q9UKE5).
T1 construct: purchased Promega V4158
The experiment is described as follows: ADP-Glo Kinase Assay, inhibition activity on TNIK. Particulars: for IC50: read-out: TNIK. The experiment is classed as biochemical. The procedure: The inhibition activities on TNIK, IKKε and TBK1 were measured by a luminometer, TNIK/IKKε/TBK1 Kinase Enzyme System (Promega, Ca# V4158; Invitrogen, PR8031B, Promega, Ca# V3991) and ADP-Glo Kinase Assay using ADP-Glo™ Kinase Analysis Kit (Promega, Ca# V9101) and a kinase reaction buffer [40 mM Tris(pH 7.5), 20 mM MgCl2, 0.1 mg/mL BSA] in accordance with the manufacturer's protocol.

T1 sequence (Q9UKE5 1-367 limits assumed): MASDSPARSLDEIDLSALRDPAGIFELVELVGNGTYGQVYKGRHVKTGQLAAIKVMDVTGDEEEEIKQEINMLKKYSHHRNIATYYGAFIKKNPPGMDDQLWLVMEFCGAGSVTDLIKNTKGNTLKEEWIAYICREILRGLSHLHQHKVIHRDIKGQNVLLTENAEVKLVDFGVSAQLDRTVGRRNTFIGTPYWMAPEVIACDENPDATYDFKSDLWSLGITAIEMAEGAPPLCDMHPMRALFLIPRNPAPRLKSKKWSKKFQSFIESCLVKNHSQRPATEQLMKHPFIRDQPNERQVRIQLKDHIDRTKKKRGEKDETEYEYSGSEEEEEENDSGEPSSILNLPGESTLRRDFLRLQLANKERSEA

With `CCc1ccccc1-c1ccc(NC(=O)c2ccccc2)c2c1CNC2=O` [Example 1, N-(7-(2-ethylphenyl)-3-oxoisoindolin-4-yl)benzamide], the IC50 worked out at 3.1 µM.

As to `CC(C)c1cccc(-c2ccc(NC(=O)c3ccccc3)c3c2CNC3=O)c1` [Example 2, N-(7-(3-isopropylphenyl)-3-oxoisoindolin-4-yl)benzamide], the IC50 was above 20 µM. Same read-out and setting: with `CC(C)(C)c1ccc(-c2ccc(NC(=O)c3ccccc3)c3c2CNC3=O)cc1` [Example 3, N-(7-(4-(tert-butyl)phenyl)-3-oxoisoindolin-4-yl)benzamide] the figure was above 20 µM; with `O=C(Nc1ccc(-c2ccccc2OC(F)(F)F)c2c1C(=O)NC2)c1ccccc1` [Example 4, N-(3-oxo-7-(2-(trifluoromethoxy)phenyl)isoindolin-4-yl)benzamide], 3 µM; with `O=C(Nc1ccc(-c2cccc(OC(F)(F)F)c2)c2c1C(=O)NC2)c1ccccc1` [Example 5, N-(3-oxo-7-(3-(trifluoromethoxy)phenyl)isoindolin-4-yl)benzamide], above 20 µM. The same measure, in the same setting: under `CC(C)Oc1ccccc1-c1ccc(NC(=O)c2ccccc2)c2c1CNC2=O` [Example 6, N-(7-(2-isopropoxyphenyl)-3-oxoisoindolin-4-yl)benzamide] stands above 20 µM; under `CC(C)Oc1cccc(-c2ccc(NC(=O)c3ccccc3)c3c2CNC3=O)c1` [Example 7, N-(7-(3-isopropoxyphenyl)-3-oxoisoindolin-4-yl)benzamide], above 20 µM. Same read-out and setting: with `COC(=O)c1ccccc1-c1ccc(NC(=O)c2ccccc2)c2c1CNC2=O` [Example 8, methyl 2-(7-benzamido-1-oxoisoindolin-4-yl)benzo ate] the figure was above 20 µM; with `COC(=O)c1cccc(-c2ccc(NC(=O)c3ccccc3)c3c2CNC3=O)c1` [Example 9, methyl 3-(7-benzamido-1-oxoisoindolin-4-yl)benzo ate], above 20 µM. For `COC(=O)c1ccc(-c2ccc(NC(=O)c3ccccc3)c3c2CNC3=O)cc1` [Example 10, methyl 4-(7-benzamido-1-oxoisoindolin-4-yl)benzo ate], the “TNIK (μM)” value is “Insoluble”. As to `CC(=O)c1ccccc1-c1ccc(NC(=O)c2ccccc2)c2c1CNC2=O` [Example 11, N-(7-(2-acetylphenyl)-3-oxoisoindolin-4-yl)benzamide], the IC50 worked out at 9.5 µM. The same measure, in the same setting: under `CC(=O)c1cccc(-c2ccc(NC(=O)c3ccccc3)c3c2CNC3=O)c1` [Example 12, N-(7-(3-acetylphenyl)-3-oxoisoindolin-4-yl)benzamide] stands above 20 µM. Take `CC(=O)c1ccc(-c2ccc(NC(=O)c3ccccc3)c3c2CNC3=O)cc1` [Example 13, N-(7-(4-acetylphenyl)-3-oxoisoindolin-4-yl)benzamide]: the “TNIK (μM)” value is listed as “Insoluble”. On to `CSc1ccccc1-c1ccc(NC(=O)c2ccccc2)c2c1CNC2=O` [Example 14, N-(7-(2-(methylthio)phenyl)-3-oxoisoindolin-4-yl)benzamide], for which the IC50 is 1.1 µM. Still for that read-out and setting: under `O=C(Nc1ccc(-c2ccc(F)cc2F)c2c1C(=O)NC2)c1ccccc1` [Example 15, N-(7-(2,4-difluorophenyl)-3-oxoisoindolin-4-yl)benzamide] stands above 20 µM. In the case of `Cc1cccc(-c2ccc(NC(=O)c3ccccc3)c3c2CNC3=O)c1C` [Example 16, N-(7-(2,3-dimethylphenyl)-3-oxoisoindolin-4-yl)benzamide], the IC50 came to 1.3 µM.

In the case of `O=C(Nc1ccc(-c2cccc(Cl)c2Cl)c2c1C(=O)NC2)c1ccccc1` [Example 17, N-(7-(2,3-dichlorophenyl)-3-oxoisoindolin-4-yl)benzamide], the IC50 was 1 µM. The same measure, in the same setting: with `O=C(Nc1ccc(-c2ccc(Cl)cc2Cl)c2c1C(=O)NC2)c1ccccc1` [Example 18, N-(7-(2,4-dichlorophenyl)-3-oxoisoindolin-4-yl)benzamide] the figure was above 20 µM. Take `O=C(Nc1ccc(-c2cc(Cl)ccc2Cl)c2c1C(=O)NC2)c1ccccc1` [Example 19, N-(7-(2,5-dichlorophenyl)-3-oxoisoindolin-4-yl)benzamide]: the “TNIK (μM)” value is listed as “Insoluble”.

Values taken from US9856216B2, “Compounds as TNIK, IKKε and TBK1 inhibitors and pharmaceutical composition comprising same” (GREEN CROSS CORPORATION, priority 2015, dated 2018).
